Measurements from the supplement of paper PMC10627819.

Experiments:
[1] = test system: S. pneumoniae D39V; assay: Bliss interaction score (quartile over a dose matrix) (fitness difference); higher = more antagonism (negative = synergy)
Procedure, shortened: (§1)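 Fitness is OD595 at stationary-phase entry relative to the plate's robust no-drug mean, capped at 1. Single-drug fitness was inferred from combinations. The Bliss score is observed minus product-expected fitness, summarised by quartiles over technical, biological and donor/recipient replicates.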

[2] = test system: B. subtilis 168; assay: as above
Procedure, shortened: as §1

[3] = test system: S. aureus DSM 20231; assay: as above
Procedure, shortened: as §1

[4] = test system: S. aureus Newman; assay: as above
Procedure, shortened: as §1

[5] = test system: S. pneumoniae D39V; assay: fitness (endpoint OD595 vs no drug) (fraction); higher = more growth
Procedure, shortened: (§2)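 Plates with 384 wells were inoculated at OD595 0.01 using 30 µl of TSB, LB Lennox or CY, or 55 µl for S. pneumoniae. Incubation was at 37 °C, with OD595 measured every 30 min for 14 h. Fitness is the stationary-phase transition optical density over the robust mean of no-drug control wells, after first-reading background subtraction; it is capped at 1.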

[6] = test system: B. subtilis 168; assay: as above; details: main component drawn
Procedure, shortened: as §2
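For Bliss interaction score (quartile over a dose matrix) in this document: first quartile when negative (synergy) and third quartile when positive (antagonism).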

CNC(C)C1CCC(N)C(OC2C(N)CC(N)C(OC3OCC(C)(O)C(NC)C3O)C2O)O1 (stereo not drawn) [Gentamicin] + CCC(C)C1C(=O)NC(=C)C(=O)NC(C(=O)NC(CSCC(C(=O)N1)NC(=O)/C(=C/C)/NC(=O)C(C(C)CC)N)C(=O)NC2C(SCC(NC(=O)CNC(=O)C3CCCN3C2=O)C(=O)NC(CCCCN)C(=O)NC4C(SCC(NC(=O)CNC(=O)C(NC(=O)C(NC(=O)C(NC(=O)CNC4=O)C)CC(C)C)CCSC)C(=O)NC(CC(=O)N)C(=O)NC(CCSC)C(=O)NC(CCCCN)C(=O)NC5C(SCC6C(=O)NC(C(=O)NC(CSC(C(C(=O)N6)NC(=O)C(NC5=O)C)C)C(=O)NC(CO)C(=O)NC(C(C)CC)C(=O)NC(CC7=CN=CN7)C(=O)NC(C(C)C)C(=O)NC(=C)C(=O)NC(CCCCN)C(=O)O)CC8=CN=CN8)C)C)C)CC(C)C [Nisin]
main component drawn
Details	Bliss interaction score
[1]	-0.0396
[2]	-0.0796
[3]	0.227
[4]	0.0431

fitness
Details	first compound 0.0625 µg/mL	first compound 0.125 µg/mL	first compound 0.25 µg/mL	first compound 2 µg/mL	first compound 4 µg/mL	first compound 8 µg/mL
[5], partner 0.4275 µg/mL, main component drawn	–	–	–	0.957	0.999	0.99
[5], partner 0.855 µg/mL, main component drawn	–	–	–	≥ 1	≥ 1	0.986
[5], partner 1.6 µg/mL, main component drawn	–	–	–	0.0179	0.0111	0.0051
[5], partner 1.71 µg/mL, main component drawn	–	–	–	0.0948	0.07	0.0917
[5], partner 3.2 µg/mL, main component drawn	–	–	–	0.0145	0.0177	0.0325
[5], partner 6.4 µg/mL, main component drawn	–	–	–	0.0183	0.0081	0.0106
[6], partner 1.25 µg/mL, one replicate	0.861	0.378	0.078	–	–	–
[6], partner 1.6 µg/mL, one replicate	0.703	0.504	0.0505	–	–	–
[6], partner 2.5 µg/mL, one replicate	0.037	0.0311	0.0563	–	–	–
[6], partner 3.2 µg/mL, one replicate	0.0387	0.0535	0.0642	–	–	–
[6], partner 4 µg/mL, one replicate	0.0303	0.0234	0.0357	–	–	–
[6], partner 5 µg/mL, one replicate	0.0263	0.0338	0.0313	–	–	–
[6], partner 6.4 µg/mL, one replicate	0.0574	0.0847	0.0596	–	–	–
[6], partner 8 µg/mL, one replicate	0.0215	0.0224	0.0124	–	–	–
[6], partner 16 µg/mL, one replicate	0.0053	0.0101	0.007	–	–	–

fitness, [6]
Details	first compound 0.0625 µg/mL	first compound 0.125 µg/mL	first compound 0.25 µg/mL
partner 0.5 µg/mL	0.865	0.768	0.27
partner 1 µg/mL	0.793	–	0.102
partner 2 µg/mL	–	0.213	0.057

CNC(C)C1CCC(N)C(OC2C(N)CC(N)C(OC3OCC(C)(O)C(NC)C3O)C2O)O1 (stereo not drawn) [Gentamicin] + CO[C@@H]1[C@@H](OC(N)=O)[C@@H](O)[C@H](Oc2ccc3c(O)c(NC(=O)c4ccc(O)c(CC=C(C)C)c4)c(=O)oc3c2C)OC1(C)C [Novobiocin]
main component drawn
Details	Bliss interaction score
[1]	0.0522
[2]	0.137
[3]	-0.0708
[4]	0.0684

fitness, [6]
Details	first compound 0.0625 µg/mL	first compound 0.125 µg/mL	first compound 0.25 µg/mL
partner 0.0125 µg/mL	0.915	–	0.0845
partner 0.025 µg/mL	0.938	0.692	0.0329
partner 0.05 µg/mL	0.998	0.705	–

fitness, [6], one replicate
Details	partner 0.1 µg/mL	partner 0.125 µg/mL	partner 0.2 µg/mL	partner 0.25 µg/mL	partner 0.5 µg/mL
first compound 0.0625 µg/mL	≥ 1	0.907	≥ 1	0.987	0.515
first compound 0.125 µg/mL	0.946	0.501	0.978	0.302	0.111
first compound 0.25 µg/mL	0.152	0.056	0.476	0.0399	0.0406

CNC(C)C1CCC(N)C(OC2C(N)CC(N)C(OC3OCC(C)(O)C(NC)C3O)C2O)O1 (stereo not drawn) [Gentamicin] + COc1cc(Cc2cnc(N)nc2N)cc(OC)c1OC [Trimethoprim]
main component drawn
Details	Bliss interaction score
[1]	-0.193
[2]	-0.201
[3]	-0.0371
[4]	0.0637

fitness, [6], one replicate
Details	partner 0.1 µg/mL	partner 0.2 µg/mL	partner 0.4 µg/mL	partner 1 µg/mL	partner 2 µg/mL
first compound 0.0625 µg/mL	0.953	0.787	0.539	0.0449	0.0512
first compound 0.125 µg/mL	0.716	0.294	0.0552	0.0304	0.0461
first compound 0.25 µg/mL	0.0356	0.0576	0.0438	0.0435	0.0503

fitness, [6]
Details	first compound 0.0625 µg/mL	first compound 0.125 µg/mL	first compound 0.25 µg/mL
partner 0.125 µg/mL	0.661	0.548	0.0923
partner 0.25 µg/mL	0.53	–	0.0847
partner 0.5 µg/mL	–	–	0.041

Cn1c2cccc(=O)c-2nc2ccccc21 [Pyocyanin] + CO[C@H]1/C=C/O[C@@]2(C)Oc3c(C)c(O)c4c(O)c(c(/C=N/N5CCN(C)CC5)c(O)c4c3C2=O)NC(=O)/C(C)=C\C=C\[C@H](C)[C@H](O)[C@@H](C)[C@@H](O)[C@@H](C)[C@H](OC(C)=O)[C@@H]1C [Rifampicin]
Details	Bliss interaction score
[1]	0.0928
[2]	-0.0612
[3]	0.031
[4]	0.0295

fitness, [5], one replicate
Details	first compound 0.325 µg/mL	first compound 0.65 µg/mL	first compound 1.3 µg/mL
partner 0.025 µg/mL	0.917	0.942	0.765
partner 0.2 µg/mL	–	–	0.021

fitness, [5]
Details	first compound 0.325 µg/mL	first compound 0.65 µg/mL
partner 0.05 µg/mL	–	0.885
partner 0.2 µg/mL	0.0407	0.178
